According to ChEMBL document CHEMBL1201862, “PubChem BioAssay data set” (2004):
The source made the active and inactive calls.

How the values were obtained:
[1] = A Cell Based Secondary Assay To Explore Cytotoxicity of Compounds that Sensitize Mycobacterium Tuberculosis to Beta-Lactam Antibiotics.; type: functional
[2] = Counterscreen for IDE inhibitors: Luminescence-based cell-based high throughput dose response assay to identify compounds that are cytotoxic to HEK cells. [Related pubchem assays: 434962 (Primary screen (IDE inhibitors in singlicate)), 449730 (Counterscreen (Cytotoxicity in triplicate)), 435028 (Confirmation (IDE inhibitors in triplicate)) …; type: functional; settings: HEK293
[3] = target: T1, Insulin-degrading enzyme (Homo sapiens, UniProt P14735); experiment: Dose Response: Fluorescence polarization-based cell-based high throughput dose response assay for inhibitors of insulin-degrading enzyme (IDE). [Related pubchem assays: 434962 (Primary screen (IDE inhibitors in singlicate)), 449730 (Counterscreen (Cytotoxicity in triplicate)), 435028 (Confirmation (IDE inhibitors in triplicate)), 434984 (Summary …; type: functional
T1 sequence (P14735 whole entry): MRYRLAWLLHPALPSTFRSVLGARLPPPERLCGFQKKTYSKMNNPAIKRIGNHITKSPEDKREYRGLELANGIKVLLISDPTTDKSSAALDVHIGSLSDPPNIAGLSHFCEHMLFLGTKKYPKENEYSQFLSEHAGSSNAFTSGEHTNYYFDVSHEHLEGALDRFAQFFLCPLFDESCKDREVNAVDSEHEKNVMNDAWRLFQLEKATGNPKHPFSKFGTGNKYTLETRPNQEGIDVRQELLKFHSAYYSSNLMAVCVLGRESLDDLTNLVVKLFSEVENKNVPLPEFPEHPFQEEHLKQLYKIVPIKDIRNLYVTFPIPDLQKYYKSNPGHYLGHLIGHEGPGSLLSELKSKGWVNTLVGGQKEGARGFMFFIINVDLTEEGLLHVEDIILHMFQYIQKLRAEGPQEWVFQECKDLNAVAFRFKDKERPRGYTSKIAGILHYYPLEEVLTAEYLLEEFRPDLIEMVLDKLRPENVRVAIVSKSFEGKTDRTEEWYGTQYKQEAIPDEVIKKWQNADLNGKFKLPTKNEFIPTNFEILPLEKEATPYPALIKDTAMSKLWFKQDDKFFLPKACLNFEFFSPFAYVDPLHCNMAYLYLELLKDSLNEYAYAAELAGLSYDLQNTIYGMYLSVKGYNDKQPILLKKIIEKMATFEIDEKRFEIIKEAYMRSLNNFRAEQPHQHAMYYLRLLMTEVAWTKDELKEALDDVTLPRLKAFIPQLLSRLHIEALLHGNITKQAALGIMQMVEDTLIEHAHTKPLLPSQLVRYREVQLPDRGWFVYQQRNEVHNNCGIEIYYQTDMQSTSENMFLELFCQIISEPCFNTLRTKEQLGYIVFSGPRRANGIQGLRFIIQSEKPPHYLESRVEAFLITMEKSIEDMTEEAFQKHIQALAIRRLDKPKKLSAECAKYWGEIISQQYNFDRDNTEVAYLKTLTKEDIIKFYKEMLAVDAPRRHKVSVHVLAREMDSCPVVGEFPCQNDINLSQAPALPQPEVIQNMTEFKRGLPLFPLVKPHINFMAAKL

[4] = target: G-protein coupled receptor 35 (Homo sapiens, UniProt Q9HC97); experiment: inhibition of zaprinast-stimulated GPR35 beta-arrestin translocation – imaging, U2OS, beta-arrestin-GFP, zaprinast agonist, primary screen (AID 2058); type: functional;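 also: antagonist potency meaning inhibition of agonist-induced arrestin redistribution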
[5] = target: Heat shock protein HSP 90-alpha (Homo sapiens, UniProt P07900); type: functional, organism-based
[6] = target: T2, Acyl-homoserine lactone acylase PvdQ (Pseudomonas aeruginosa (strain LESB58), UniProt Q9I194); experiment: PvdQ acylase enzyme activity blockers – biochemical, fluorescence, plate reader and imaging, cherry-picks, dose response (AID 493231)
T2 sequence (Q9I194 whole entry): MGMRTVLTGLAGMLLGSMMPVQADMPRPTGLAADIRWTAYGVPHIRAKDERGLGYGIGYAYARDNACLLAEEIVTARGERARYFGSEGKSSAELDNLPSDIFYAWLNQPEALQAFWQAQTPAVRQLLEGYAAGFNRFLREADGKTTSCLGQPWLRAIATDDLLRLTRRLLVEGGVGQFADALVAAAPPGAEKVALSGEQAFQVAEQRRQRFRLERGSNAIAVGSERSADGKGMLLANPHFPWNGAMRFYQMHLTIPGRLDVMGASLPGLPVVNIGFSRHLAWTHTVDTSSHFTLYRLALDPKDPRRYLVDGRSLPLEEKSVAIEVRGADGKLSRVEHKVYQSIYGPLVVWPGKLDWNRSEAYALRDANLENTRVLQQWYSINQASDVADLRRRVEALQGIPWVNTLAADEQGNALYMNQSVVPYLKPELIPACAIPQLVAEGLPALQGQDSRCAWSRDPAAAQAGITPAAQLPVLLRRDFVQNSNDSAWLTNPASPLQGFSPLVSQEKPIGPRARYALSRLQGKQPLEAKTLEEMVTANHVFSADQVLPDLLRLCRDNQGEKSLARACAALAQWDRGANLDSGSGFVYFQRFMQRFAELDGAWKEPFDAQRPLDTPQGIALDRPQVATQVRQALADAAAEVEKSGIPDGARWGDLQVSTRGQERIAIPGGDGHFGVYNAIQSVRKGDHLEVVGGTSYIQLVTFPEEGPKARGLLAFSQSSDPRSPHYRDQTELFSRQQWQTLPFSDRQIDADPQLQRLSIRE

[7] = target: T3, Lysosomal acid glucosylceramidase (Homo sapiens, UniProt P04062); experiment: Dose response cell-based high throughput screening assay to identify enhancers of beta-glucosidase activity. [Related pubchem assays: 784 ]; type: functional
T3 sequence (P04062 whole entry): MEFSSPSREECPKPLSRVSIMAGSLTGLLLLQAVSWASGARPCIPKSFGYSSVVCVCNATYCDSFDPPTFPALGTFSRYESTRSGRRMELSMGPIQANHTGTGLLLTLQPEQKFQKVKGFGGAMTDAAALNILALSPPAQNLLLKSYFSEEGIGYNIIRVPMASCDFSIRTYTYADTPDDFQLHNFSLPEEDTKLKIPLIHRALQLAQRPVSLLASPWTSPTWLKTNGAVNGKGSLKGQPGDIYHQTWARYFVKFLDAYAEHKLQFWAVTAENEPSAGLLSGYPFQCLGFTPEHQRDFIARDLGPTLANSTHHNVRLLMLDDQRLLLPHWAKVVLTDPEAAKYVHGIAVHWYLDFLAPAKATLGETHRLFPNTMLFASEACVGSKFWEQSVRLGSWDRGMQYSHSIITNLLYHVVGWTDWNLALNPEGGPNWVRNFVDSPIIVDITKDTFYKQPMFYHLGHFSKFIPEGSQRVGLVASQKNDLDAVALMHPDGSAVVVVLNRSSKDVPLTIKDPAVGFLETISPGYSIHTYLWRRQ

[8] = M. tuberculosis H37Rv growth inhibitors, H37Rv strain (AID 1626); type: functional
[9] = target: Melanocortin receptor 4 (Homo sapiens, UniProt P32245); type: functional, cell-based;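 also: Cell-based assay with luminescence read-out, confirmatory dose-response testing for agonist activity of biased ligands at MC4R; human U2OS cells with tagged receptor and beta-arrestin; potency of agonists that increase receptor coupling to beta-arrestin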
[10] = viability of PTEN-deleted HCT116 cells – cell-based, HCT116 PTEN knockout, dose response (AID 1047); type: functional;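 also: HCT116 colon tumor cells with PTEN knocked out; cells exposed to compound for 60 hours before readout; potency for loss of cell viability measured by luminescence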
[11] = viability of HCT116 lacking mutant beta-catenin – cell-based, human colon tumor, dose response (AID 1045); type: functional;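 also: HCT116 colon tumor cells with beta catenin knocked out; cells exposed to compound for 60 hours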
[12] = cells; type: functional, cell-based
[13] = cells; type: functional, cell-based; remark: listed apart in the source
[14] = tested on: Streptococcus sp. 'group A'; experiment: Streptococcus pyogenes SK(-)GAS viability under kanamycin – luminescence, BacTiterGlo, confirmation, counter-screen for streptokinase expression inhibitor project, dose response (AID 1900); type: functional, organism-based
[15] = target: T4, Streptokinase A (Streptococcus pyogenes serotype M1, UniProt P10520); experiment: viability-normalized secreted streptokinase activity reduction – plasminogen activation absorbance, OD405, dose response (AID 1914); type: functional, Streptococcus pyogenes M1 GAS;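 also: secreted streptokinase activity via plasminogen activation per viability signal from cell pellet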
T4 sequence (P10520 whole entry): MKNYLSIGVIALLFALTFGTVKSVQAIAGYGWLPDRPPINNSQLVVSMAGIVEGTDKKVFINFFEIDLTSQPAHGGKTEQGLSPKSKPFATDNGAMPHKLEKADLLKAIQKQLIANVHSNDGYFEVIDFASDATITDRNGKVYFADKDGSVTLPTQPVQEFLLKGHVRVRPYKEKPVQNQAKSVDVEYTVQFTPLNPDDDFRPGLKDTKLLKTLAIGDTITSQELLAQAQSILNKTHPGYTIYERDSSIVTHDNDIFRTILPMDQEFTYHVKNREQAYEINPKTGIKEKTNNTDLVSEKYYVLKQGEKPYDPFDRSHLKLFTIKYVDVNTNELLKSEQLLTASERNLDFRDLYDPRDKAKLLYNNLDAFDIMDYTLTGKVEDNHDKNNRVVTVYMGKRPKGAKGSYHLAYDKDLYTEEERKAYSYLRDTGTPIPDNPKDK

[16] = HPDE-C7 pancreatic duct cell viability loss – fluorescence, HTS (AID 430); type: functional, cell-based; settings: Homo sapiens
[17] = viability loss of HPDE-C7K cells – cell-based, fluorescence, HTS, primary screen (AID 431); type: functional; settings: Homo sapiens
[18] = tested on: Streptococcus; experiment: GAS UMAA2166 growth inhibition – luminescence, BacTiterGlo, counter-screen for streptokinase expression inhibitor project, dose response (AID 1915); type: functional, organism-based;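 also: potency for reduction of bacterial viability or growth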
[19] = target: Peroxisome proliferator-activated receptor gamma/Nuclear receptor coactivator 2 (Homo sapiens, UniProt P37231); type: functional;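 also: agonist potency for raising coactivator recruitment to the receptor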
[20] = target: Peroxisome proliferator-activated receptor gamma/Nuclear receptor coactivator 1 (Homo sapiens, UniProt P37231); type: functional;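 also: agonist potency as compounds enhance coactivator SRC-1 recruitment to PPARgamma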
[21] = target: Peroxisome proliferator-activated receptor gamma/Nuclear receptor coactivator 3 (Homo sapiens, UniProt P37231); type: functional;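 also: agonist potency for raising coactivator recruitment to the receptor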
[22] = Luminescence Cell-Based Dose Retest to Confirm Inhibitors of Cancer Stem Cells. [Related pubchem assays (depositor defined):AID2717, AID2721]; type: functional; settings: Homo sapiens
[23] = target: DNA dC->dU-editing enzyme APOBEC-3A (Homo sapiens, UniProt P31941); experiment: A3A deaminase inhibition for selectivity – biochemical, dose response (AID 504722); type: functional
[24] = target: DNA dC->dU-editing enzyme APOBEC-3G (Homo sapiens, UniProt Q9HC16); experiment: Dose Response confirmation of small molecule APOBEC3G DNA Deaminase Inhibitors via a fluorescence-based single-stranded DNA deaminase assay. [Related pubchem assays (depositor defined):AID493012, AID493028]; type: functional
[25] = target: Cytochrome P450 2C19 (Homo sapiens, UniProt P33261); experiment: Cytochrome panel assay with activity outcomes. Panel member name: p450-cyp2c19 Compounds with AC50 equal or less than 10 uM are considered active; type: functional; settings: read-out: AC50
[26] = target: Cytochrome P450 2C9 (Homo sapiens, UniProt P11712)

Chain of Peroxisome proliferator-activated receptor gamma/Nuclear receptor coactivator 2 (P37231 whole entry): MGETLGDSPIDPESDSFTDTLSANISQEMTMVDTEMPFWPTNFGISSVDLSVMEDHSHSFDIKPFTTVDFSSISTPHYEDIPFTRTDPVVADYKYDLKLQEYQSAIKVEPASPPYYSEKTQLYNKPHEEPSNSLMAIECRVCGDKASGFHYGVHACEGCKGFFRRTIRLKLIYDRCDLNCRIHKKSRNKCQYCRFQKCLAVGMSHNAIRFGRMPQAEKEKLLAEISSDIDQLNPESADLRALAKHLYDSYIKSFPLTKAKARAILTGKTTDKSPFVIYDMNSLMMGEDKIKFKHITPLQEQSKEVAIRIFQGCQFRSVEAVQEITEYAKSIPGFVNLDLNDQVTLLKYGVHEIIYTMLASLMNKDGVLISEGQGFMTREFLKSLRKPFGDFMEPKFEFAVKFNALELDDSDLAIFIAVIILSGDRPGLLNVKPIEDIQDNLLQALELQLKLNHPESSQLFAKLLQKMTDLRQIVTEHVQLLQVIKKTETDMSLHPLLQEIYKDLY
Chain of Peroxisome proliferator-activated receptor gamma/Nuclear receptor coactivator 2 (Q15596 whole entry, further chain): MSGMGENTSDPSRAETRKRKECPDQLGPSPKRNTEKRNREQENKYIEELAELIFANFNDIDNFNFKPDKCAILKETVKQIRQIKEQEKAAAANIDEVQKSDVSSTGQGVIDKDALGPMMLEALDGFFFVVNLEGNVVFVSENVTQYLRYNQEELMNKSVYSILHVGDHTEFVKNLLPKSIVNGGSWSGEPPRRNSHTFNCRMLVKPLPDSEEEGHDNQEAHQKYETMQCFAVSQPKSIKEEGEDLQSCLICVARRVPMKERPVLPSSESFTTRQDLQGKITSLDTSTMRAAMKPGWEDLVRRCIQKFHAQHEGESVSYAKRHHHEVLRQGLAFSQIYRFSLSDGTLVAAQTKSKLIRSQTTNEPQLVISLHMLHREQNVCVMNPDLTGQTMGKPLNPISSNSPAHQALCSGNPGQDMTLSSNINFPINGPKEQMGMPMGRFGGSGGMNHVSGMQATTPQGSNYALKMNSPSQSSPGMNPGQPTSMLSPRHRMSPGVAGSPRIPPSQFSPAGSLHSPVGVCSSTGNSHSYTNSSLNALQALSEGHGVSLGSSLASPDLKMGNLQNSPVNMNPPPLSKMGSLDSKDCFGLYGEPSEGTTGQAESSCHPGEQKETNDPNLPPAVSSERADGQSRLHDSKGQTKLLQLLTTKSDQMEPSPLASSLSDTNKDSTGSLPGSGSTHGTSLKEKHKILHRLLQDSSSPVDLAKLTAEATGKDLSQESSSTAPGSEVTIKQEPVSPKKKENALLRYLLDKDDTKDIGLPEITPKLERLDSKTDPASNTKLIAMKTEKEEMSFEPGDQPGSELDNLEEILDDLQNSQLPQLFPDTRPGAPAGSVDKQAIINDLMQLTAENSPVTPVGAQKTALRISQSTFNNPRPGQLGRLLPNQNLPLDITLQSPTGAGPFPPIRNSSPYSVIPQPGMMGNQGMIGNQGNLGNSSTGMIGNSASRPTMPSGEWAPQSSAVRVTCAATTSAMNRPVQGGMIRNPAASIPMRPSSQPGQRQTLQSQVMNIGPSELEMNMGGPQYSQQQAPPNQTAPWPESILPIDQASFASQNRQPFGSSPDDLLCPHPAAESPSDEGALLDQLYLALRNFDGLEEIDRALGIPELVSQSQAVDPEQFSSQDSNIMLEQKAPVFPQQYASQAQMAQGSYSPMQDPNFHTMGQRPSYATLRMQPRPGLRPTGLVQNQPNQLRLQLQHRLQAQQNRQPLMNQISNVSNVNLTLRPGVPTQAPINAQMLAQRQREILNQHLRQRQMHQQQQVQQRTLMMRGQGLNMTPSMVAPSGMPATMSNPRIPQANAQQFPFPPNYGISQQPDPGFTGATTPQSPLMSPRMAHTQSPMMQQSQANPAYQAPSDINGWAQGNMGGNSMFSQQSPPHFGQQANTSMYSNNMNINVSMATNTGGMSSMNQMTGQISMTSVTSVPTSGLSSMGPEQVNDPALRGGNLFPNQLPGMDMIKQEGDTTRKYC
Chain of Peroxisome proliferator-activated receptor gamma/Nuclear receptor coactivator 1 (P37231 whole entry): as the sequence (P37231 whole entry) above
Chain of Peroxisome proliferator-activated receptor gamma/Nuclear receptor coactivator 1 (Q15788 whole entry, further chain): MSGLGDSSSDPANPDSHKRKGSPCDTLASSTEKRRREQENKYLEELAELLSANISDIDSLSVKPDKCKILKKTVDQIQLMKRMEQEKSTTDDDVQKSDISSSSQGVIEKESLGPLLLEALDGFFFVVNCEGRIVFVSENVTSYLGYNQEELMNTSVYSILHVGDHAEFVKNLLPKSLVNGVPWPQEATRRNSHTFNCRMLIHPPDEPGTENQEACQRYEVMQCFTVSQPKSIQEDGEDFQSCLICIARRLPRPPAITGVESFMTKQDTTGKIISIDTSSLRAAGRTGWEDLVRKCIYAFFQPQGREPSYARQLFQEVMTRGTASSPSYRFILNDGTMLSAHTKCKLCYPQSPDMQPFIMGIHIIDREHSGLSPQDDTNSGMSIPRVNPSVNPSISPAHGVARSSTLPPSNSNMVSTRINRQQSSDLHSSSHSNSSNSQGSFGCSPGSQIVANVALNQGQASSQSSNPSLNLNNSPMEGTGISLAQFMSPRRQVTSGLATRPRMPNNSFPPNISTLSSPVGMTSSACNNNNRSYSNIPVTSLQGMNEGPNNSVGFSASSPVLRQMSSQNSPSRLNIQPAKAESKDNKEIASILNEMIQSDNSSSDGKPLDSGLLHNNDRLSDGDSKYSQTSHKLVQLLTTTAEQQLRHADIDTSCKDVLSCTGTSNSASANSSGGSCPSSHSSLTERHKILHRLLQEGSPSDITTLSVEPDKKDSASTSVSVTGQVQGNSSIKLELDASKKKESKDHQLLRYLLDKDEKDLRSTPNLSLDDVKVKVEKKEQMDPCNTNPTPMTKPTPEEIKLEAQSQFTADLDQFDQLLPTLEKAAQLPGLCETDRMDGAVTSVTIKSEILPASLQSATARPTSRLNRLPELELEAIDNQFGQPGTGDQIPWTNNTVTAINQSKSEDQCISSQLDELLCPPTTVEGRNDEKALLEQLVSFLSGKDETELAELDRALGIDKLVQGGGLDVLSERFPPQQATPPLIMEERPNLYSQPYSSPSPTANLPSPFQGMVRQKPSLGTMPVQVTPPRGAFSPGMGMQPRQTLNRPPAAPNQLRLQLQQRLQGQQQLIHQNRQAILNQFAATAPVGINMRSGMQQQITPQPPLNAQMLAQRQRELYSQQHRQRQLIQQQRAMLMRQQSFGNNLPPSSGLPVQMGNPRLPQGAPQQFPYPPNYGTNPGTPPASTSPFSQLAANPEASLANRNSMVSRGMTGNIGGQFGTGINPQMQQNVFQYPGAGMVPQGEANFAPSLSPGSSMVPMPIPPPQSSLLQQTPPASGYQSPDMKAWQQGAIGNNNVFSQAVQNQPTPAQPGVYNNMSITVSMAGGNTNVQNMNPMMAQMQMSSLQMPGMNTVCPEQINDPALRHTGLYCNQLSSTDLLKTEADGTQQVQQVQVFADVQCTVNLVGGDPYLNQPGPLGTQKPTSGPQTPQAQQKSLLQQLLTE
Chain of G-protein coupled receptor 35 (Q9HC97 whole entry): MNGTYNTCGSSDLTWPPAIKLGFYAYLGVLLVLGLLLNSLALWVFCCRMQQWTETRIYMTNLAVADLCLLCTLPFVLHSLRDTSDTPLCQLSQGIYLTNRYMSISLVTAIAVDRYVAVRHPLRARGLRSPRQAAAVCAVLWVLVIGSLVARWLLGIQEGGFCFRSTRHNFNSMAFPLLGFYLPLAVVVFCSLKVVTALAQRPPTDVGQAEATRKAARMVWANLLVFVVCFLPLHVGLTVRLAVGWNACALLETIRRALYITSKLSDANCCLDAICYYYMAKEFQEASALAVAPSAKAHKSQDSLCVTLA
Chain of Cytochrome P450 2C19 (P33261 whole entry): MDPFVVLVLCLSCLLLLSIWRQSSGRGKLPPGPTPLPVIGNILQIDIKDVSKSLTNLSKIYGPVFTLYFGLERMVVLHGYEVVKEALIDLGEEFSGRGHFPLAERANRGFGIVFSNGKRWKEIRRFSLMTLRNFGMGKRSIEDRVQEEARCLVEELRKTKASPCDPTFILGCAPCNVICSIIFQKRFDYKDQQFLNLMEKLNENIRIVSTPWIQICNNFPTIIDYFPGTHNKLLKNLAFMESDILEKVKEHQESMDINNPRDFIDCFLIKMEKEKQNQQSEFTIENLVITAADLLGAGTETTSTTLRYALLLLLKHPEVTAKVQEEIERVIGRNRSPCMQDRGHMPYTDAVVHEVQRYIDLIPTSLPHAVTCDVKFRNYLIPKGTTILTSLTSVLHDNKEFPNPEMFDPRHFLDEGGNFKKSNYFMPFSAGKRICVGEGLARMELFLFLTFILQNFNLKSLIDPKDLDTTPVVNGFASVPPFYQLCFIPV
Chain of Melanocortin receptor 4 (P32245 whole entry): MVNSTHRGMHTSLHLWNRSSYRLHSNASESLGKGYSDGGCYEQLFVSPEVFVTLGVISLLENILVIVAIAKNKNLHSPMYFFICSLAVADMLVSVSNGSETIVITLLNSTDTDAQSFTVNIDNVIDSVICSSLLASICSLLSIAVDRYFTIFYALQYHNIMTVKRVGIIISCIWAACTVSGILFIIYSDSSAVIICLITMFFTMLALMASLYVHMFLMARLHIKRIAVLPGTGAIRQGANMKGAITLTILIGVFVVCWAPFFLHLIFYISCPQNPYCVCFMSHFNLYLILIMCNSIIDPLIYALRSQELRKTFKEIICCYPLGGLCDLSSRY

O=C(/C=C/c1ccc([N+](=O)[O-])cc1)c1cccs1
CC50 [1]: 20.9 µM (active)

Cc1cc(C)cc(Nc2cnn(C34CC5CC(CC(CC(=O)O)(C5)C3)C4)c(=O)c2Cl)c1
IC50 [2]: 0.0039 µM (active)
IC50 [3]: 21.5 µM (not active)

CN(C)/C=C/C(=O)c1ccc(N2CCN(c3ncc(C(F)(F)F)cc3Cl)CC2)cc1
IC50 [4]: 0.53 µM (active)
AC50 [5]: 4.29 µM (active)

CCN1C(=O)/C(=C/C=C2/CCCN2C)OC1=S
IC50 [2]: > 55.7 µM (not active)
IC50 [3]: 30.7 µM (not active)

Cc1ccc(S(=O)(=O)NCc2ccc3c(c2)OCO3)cc1C
AC50 [6]: 70.4 µM (active)

Cc1nonc1NC(=O)CSc1nc2cc(Cl)ccc2c2c1CCCC2
EC50 [7]: > 10 µM (not active)

O=C(COc1ccc2c(c1)OCO2)Nc1ccc2c(c1)oc1ccccc12
IC50 [8]: > 100 µM (active)
EC50 [9]: > 89.2 µM (inactive)

Oc1ccc(F)cc1-c1cc(-c2ccc3c(c2)OCCO3)[nH]n1
EC50 [10]: 46.6 µM (active)
EC50 [11]: 25.9 µM (active)
AC50 [6]: > 100 µM (inactive)

CCCCCCN1C=CC=C/C1=C/C=C(C#N)C#N
EC50 [12]: > 350 µM (not active)
IC50 [2]: 45.9 µM (not active)
EC50 [13]: > 350 µM (not active)
IC50 [3]: > 6.22 µM (active)

CC(C)(C)C1CCC2(CC1)C(C#N)=C(SCC(=O)Nc1ccccc1)NC(=O)C2C#N (stereo not drawn)
EC50 [14]: 4.96 µM (active)
EC50 [15]: 11.5 µM (active)
EC50 [16]: 5.05 µM (active)
EC50 [17]: 4.26 µM (active)
EC50 [18]: 25.2 µM (active)

Cc1cccnc1NC(=O)c1c(O)c2cccc3c2n(c1=O)CCC3
CC50 [1]: > 40 µM (active)

COc1ccc(NC(=O)CN2CCN(S(=O)(=O)c3ccc(C(C)C)cc3)CC2)cc1OC
EC50 [7]: > 10 µM (not active)

CCCCSc1nnc([C@H](C)NC(=O)OC(C)(C)C)o1
EC50 [19]: > 79.4 µM (not active)
EC50 [20]: > 79.4 µM (not active)
EC50 [21]: > 79.4 µM (not active)

CCc1c(C#N)c(N)nc(SCC(=O)OCc2ccccc2)c1C#N
IC50 [8]: > 100 µM (active)

CCC(C)NS(=O)(=O)c1ccc(OC)c(Cl)c1Cl (stereo not drawn)
AC50 [6]: 10 µM (active)

CCCOC(=O)c1ccc(Oc2c[nH]nc2-c2ccc(OC)cc2O)cc1
EC50 [14]: 8.73 µM (active)
EC50 [16]: 8.49 µM (active)
EC50 [17]: 6.14 µM (active)
EC50 [18]: 10.3 µM (active)
AC50 [5]: 7.97 µM (active)

O=C(Nc1ccccc1-c1ccccc1)C12CC3CC(CC(C3)C1)C2
CC50 [1]: > 40 µM (active)

NNc1nc2c(-c3ccc(F)cc3)nnn2c2ccccc12
EC50 [19]: > 79.4 µM (not active)
EC50 [20]: > 79.4 µM (not active)
EC50 [21]: > 79.4 µM (not active)

O=C(c1cc(COc2ccc(F)cc2Cl)on1)N1CCC(OCc2cccnc2)CC1
IC50 [8]: > 100 µM (active)

CC(NS(=O)(=O)OCC(Cl)(Cl)Cl)c1ccc(C(C)(C)C)cc1 (stereo not drawn)
IC50 [4]: 1.46 µM (active)
EC50 [14]: 4.61 µM (active)
EC50 [15]: 4.06 µM (active)
EC50 [18]: 12.8 µM (active)
AC50 [22]: 2.77 µM (active)

CCn1c(SCC(=O)O)nnc1C1CCCCC1
EC50 [19]: > 79.4 µM (not active)
EC50 [20]: > 79.4 µM (not active)
EC50 [21]: > 79.4 µM (not active)

CCc1nnc(S)n1/N=C/c1c(O)ccc2ccccc12
IC50 [23]: > 100 µM (inactive)
IC50 [24]: 4 µM (active)

Cn1c(/C(C#N)=C(\O)c2ccc(S(=O)(=O)N3CCCCC3)cc2)nc2ccccc21
EC50 [7]: > 50 µM (not active)
AC50 [25]: 10 µM (inconclusive)
AC50 [26]: 0.316 µM (inconclusive)
